Data from PubChem BioAssay AID1963836 (Molecular Pharmacology Branch, DTP, NCI, 2024).

Test system: 857933-349-R-J2-PDC complex spheroid viability
Assay: Anticancer human tumor 857933-349-R-J2-PDC patient-derived colon adenocarcinoma cell line growth inhibition [POLQ]
Settings: for IC50: curve of first compound; for viability, T/C: stronger effect = lower value; active means viability on the fitted dose curve at most 10% of control; inactive means the rest
Summary of the method: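 Three-cell-type spheroids modelling solid tumor plus stroma served as the readout system; POL inhibitors were tested individually and in combination, concentration ranges set by clinical Cmax where known.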

[1] = second compound 0.0316 µM, first compound 0.0316 µM
[2] = second compound 0.0316 µM, first compound 0.1 µM
[3] = second compound 0.0316 µM, first compound 0.316 µM
[4] = second compound 0.0316 µM, first compound 1 µM
[5] = second compound 0.0316 µM, first compound 3.16 µM
[6] = second compound 0.0316 µM, first compound 10 µM
[7] = second compound 0.1 µM, first compound 0.0316 µM
[8] = second compound 0.1 µM, first compound 0.1 µM
[9] = second compound 0.1 µM, first compound 0.316 µM
[10] = second compound 0.1 µM, first compound 1 µM
[11] = second compound 0.1 µM, first compound 3.16 µM
[12] = second compound 0.1 µM, first compound 10 µM
[13] = second compound 0.316 µM, first compound 0.0316 µM
[14] = second compound 0.316 µM, first compound 0.1 µM
[15] = second compound 0.316 µM, first compound 0.316 µM
[16] = second compound 0.316 µM, first compound 1 µM
[17] = second compound 0.316 µM, first compound 3.16 µM
[18] = second compound 0.316 µM, first compound 10 µM
[19] = second compound 1 µM, first compound 0.0316 µM
[20] = second compound 1 µM, first compound 0.1 µM
[21] = second compound 1 µM, first compound 0.316 µM
[22] = second compound 1 µM, first compound 1 µM
[23] = second compound 1 µM, first compound 3.16 µM
[24] = second compound 1 µM, first compound 10 µM
[25] = second compound 3.16 µM, first compound 0.0316 µM
[26] = second compound 3.16 µM, first compound 0.1 µM
[27] = second compound 3.16 µM, first compound 0.316 µM
[28] = second compound 3.16 µM, first compound 1 µM
[29] = second compound 3.16 µM, first compound 3.16 µM
[30] = second compound 3.16 µM, first compound 10 µM
[31] = second compound 10 µM, first compound 0.0316 µM
[32] = second compound 10 µM, first compound 0.1 µM
[33] = second compound 10 µM, first compound 0.316 µM
[34] = second compound 10 µM, first compound 1 µM
[35] = second compound 10 µM, first compound 3.16 µM
[36] = second compound 10 µM, first compound 10 µM
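Further: spheroids exposed to compounds for seven days before readout.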

C=CC(=O)N1CCN(c2nc(=O)n(-c3c(C)ccnc3C(C)C)c3nc(-c4c(O)cccc4F)c(F)cc23)C(C)C1 (stereo not given) + COC1C(OC(N)=O)C(O)C(Oc2ccc3c(O)c(NC(=O)c4ccc(O)c(CC=C(C)C)c4)c(=O)oc3c2C)OC1(C)C
inactive: viability, T/C [1] 105% | viability, T/C [2] 104% | viability, T/C [3] 103% | viability, T/C [4] 107% | viability, T/C [5] 88.5% | viability, T/C [6] 102% | viability, T/C [7] 94.4% | viability, T/C [8] 88.7% | viability, T/C [9] 79.5% | viability, T/C [10] 110% | viability, T/C [11] 104% | viability, T/C [12] 77% | viability, T/C [13] 96.1% | viability, T/C [14] 110% | viability, T/C [15] 102% | viability, T/C [16] 98.2% | viability, T/C [17] 100% | viability, T/C [18] 74.9% | viability, T/C [19] 101% | viability, T/C [20] 108% | viability, T/C [21] 81.3% | viability, T/C [22] 109% | viability, T/C [23] 99.2% | viability, T/C [24] 93.3% | viability, T/C [25] 98.1% | viability, T/C [26] 116% | viability, T/C [27] 126% | viability, T/C [28] 99.3% | viability, T/C [29] 111% | viability, T/C [30] 71.4% | viability, T/C [31] 104% | viability, T/C [32] 73% | viability, T/C [33] 118% | viability, T/C [34] 97.4% | viability, T/C [35] 82.2% | viability, T/C [36] 99.8%
> 10 µM: IC50 (second compound 0.0316 µM) | IC50 (second compound 0.1 µM) | IC50 (second compound 0.316 µM) | IC50 (second compound 1 µM) | IC50 (second compound 3.16 µM) | IC50 (second compound 10 µM)

CC(C)n1c(=O)n(C)c2cnc3cc(F)c(-c4ccc(OCCCN5CCCCC5)nc4)cc3c21 + COC1C(OC(N)=O)C(O)C(Oc2ccc3c(O)c(NC(=O)c4ccc(O)c(CC=C(C)C)c4)c(=O)oc3c2C)OC1(C)C
> 10 µM: IC50 (second compound 0.0316 µM) | IC50 (second compound 0.1 µM) | IC50 (second compound 0.316 µM) | IC50 (second compound 1 µM) | IC50 (second compound 3.16 µM) | IC50 (second compound 10 µM)
inactive: viability, T/C [1] 102% | viability, T/C [2] 108% | viability, T/C [3] 97.3% | viability, T/C [4] 105% | viability, T/C [5] 109% | viability, T/C [6] 111% | viability, T/C [7] 113% | viability, T/C [8] 118% | viability, T/C [9] 100% | viability, T/C [10] 95% | viability, T/C [11] 121% | viability, T/C [12] 100% | viability, T/C [13] 87.2% | viability, T/C [14] 120% | viability, T/C [15] 93.1% | viability, T/C [16] 85.1% | viability, T/C [17] 84.1% | viability, T/C [18] 105% | viability, T/C [19] 74.4% | viability, T/C [20] 110% | viability, T/C [21] 103% | viability, T/C [22] 98.3% | viability, T/C [23] 87.8% | viability, T/C [24] 122% | viability, T/C [25] 110% | viability, T/C [26] 112% | viability, T/C [27] 111% | viability, T/C [28] 89% | viability, T/C [29] 122% | viability, T/C [30] 123% | viability, T/C [31] 89.6% | viability, T/C [32] 115% | viability, T/C [33] 106% | viability, T/C [34] 104% | viability, T/C [35] 85.7% | viability, T/C [36] 114%

CCc1cc2c(N3CCc4c(cc(Cn5ccnc5)cc4-c4cn(C)nc4C(F)(F)F)C3=O)cc(C)nc2c(OC)n1 + COC1C(OC(N)=O)C(O)C(Oc2ccc3c(O)c(NC(=O)c4ccc(O)c(CC=C(C)C)c4)c(=O)oc3c2C)OC1(C)C
inactive: viability, T/C [1] 116% | viability, T/C [2] 80.3% | viability, T/C [3] 72.3% | viability, T/C [4] 61.8% | viability, T/C [5] 68.5% | viability, T/C [6] 56.2% | viability, T/C [7] 97.5% | viability, T/C [8] 77.6% | viability, T/C [9] 95.5% | viability, T/C [10] 58.6% | viability, T/C [11] 68.2% | viability, T/C [12] 52.9% | viability, T/C [13] 117% | viability, T/C [14] 88.3% | viability, T/C [15] 75.3% | viability, T/C [16] 61.7% | viability, T/C [17] 82.9% | viability, T/C [18] 67.5% | viability, T/C [19] 102% | viability, T/C [20] 95.3% | viability, T/C [21] 78.8% | viability, T/C [22] 60.2% | viability, T/C [23] 52.8% | viability, T/C [24] 57.7% | viability, T/C [25] 77.7% | viability, T/C [26] 76.1% | viability, T/C [27] 89.7% | viability, T/C [28] 80.1% | viability, T/C [29] 57.5% | viability, T/C [30] 68.3% | viability, T/C [31] 71.3% | viability, T/C [32] 86.3% | viability, T/C [33] 72.7% | viability, T/C [34] 71.3% | viability, T/C [35] 91.8% | viability, T/C [36] 58%
> 10 µM: IC50 (second compound 0.0316 µM) | IC50 (second compound 0.1 µM) | IC50 (second compound 0.316 µM) | IC50 (second compound 1 µM) | IC50 (second compound 3.16 µM) | IC50 (second compound 10 µM)

CCc1cc2c(N3CCc4c(cc(Cn5ccnc5)cc4-c4cn(C)nc4C(F)(F)F)C3=O)ccnc2c(OC)n1 + COC1C(OC(N)=O)C(O)C(Oc2ccc3c(O)c(NC(=O)c4ccc(O)c(CC=C(C)C)c4)c(=O)oc3c2C)OC1(C)C
inactive: viability, T/C [1] 88.9% | viability, T/C [2] 93.4% | viability, T/C [3] 106% | viability, T/C [4] 75.6% | viability, T/C [5] 66% | viability, T/C [6] 51.8% | viability, T/C [7] 103% | viability, T/C [8] 93.1% | viability, T/C [9] 80.2% | viability, T/C [10] 84.2% | viability, T/C [11] 61% | viability, T/C [12] 44.6% | viability, T/C [13] 90.4% | viability, T/C [14] 104% | viability, T/C [15] 73.4% | viability, T/C [16] 71.5% | viability, T/C [17] 65.4% | viability, T/C [18] 58.4% | viability, T/C [19] 90% | viability, T/C [20] 79% | viability, T/C [21] 74.9% | viability, T/C [22] 69.8% | viability, T/C [23] 61.3% | viability, T/C [24] 59.5% | viability, T/C [25] 96.3% | viability, T/C [26] 98.2% | viability, T/C [27] 82.7% | viability, T/C [28] 73.6% | viability, T/C [29] 75.3% | viability, T/C [30] 58.2% | viability, T/C [31] 99.6% | viability, T/C [32] 94.5% | viability, T/C [33] 75.6% | viability, T/C [34] 92.3% | viability, T/C [35] 59.7% | viability, T/C [36] 62.8%
> 10 µM: IC50 (second compound 0.0316 µM) | IC50 (second compound 0.316 µM) | IC50 (second compound 1 µM) | IC50 (second compound 3.16 µM) | IC50 (second compound 10 µM)
7.52 µM: IC50 (second compound 0.1 µM)

COc1cc2cc(C(=O)CCC(=O)O)sc2cc1OC + COC1C(OC(N)=O)C(O)C(Oc2ccc3c(O)c(NC(=O)c4ccc(O)c(CC=C(C)C)c4)c(=O)oc3c2C)OC1(C)C
> 10 µM: IC50 (second compound 0.0316 µM) | IC50 (second compound 0.1 µM) | IC50 (second compound 0.316 µM) | IC50 (second compound 1 µM) | IC50 (second compound 3.16 µM) | IC50 (second compound 10 µM)
inactive: viability, T/C [1] 82% | viability, T/C [2] 98.3% | viability, T/C [3] 79.9% | viability, T/C [4] 79% | viability, T/C [5] 106% | viability, T/C [6] 93.8% | viability, T/C [7] 91.4% | viability, T/C [8] 95.5% | viability, T/C [9] 98.1% | viability, T/C [10] 79.2% | viability, T/C [11] 92.5% | viability, T/C [12] 111% | viability, T/C [13] 104% | viability, T/C [14] 102% | viability, T/C [15] 84% | viability, T/C [16] 97.2% | viability, T/C [17] 84.4% | viability, T/C [18] 79.7% | viability, T/C [19] 110% | viability, T/C [20] 112% | viability, T/C [21] 103% | viability, T/C [22] 94.2% | viability, T/C [23] 110% | viability, T/C [24] 122% | viability, T/C [25] 90.6% | viability, T/C [26] 91.1% | viability, T/C [27] 86.6% | viability, T/C [28] 77.4% | viability, T/C [29] 84.1% | viability, T/C [30] 90% | viability, T/C [31] 76.4% | viability, T/C [32] 98.1% | viability, T/C [33] 108% | viability, T/C [34] 116% | viability, T/C [35] 112% | viability, T/C [36] 91.9%
